Data set [1] concerns phosphodiesterase 10A (PDE10A). Details: method as in Seeger et al. [2003]; Suzuki et al. [2015]. The note with it: ref Seeger et al. [2003]; Suzuki et al. [2015]; cited from earlier work.
The test system of another data set is rats. Also noted: method as in Suzuki et al. [2016]. The settings on record: ref Suzuki et al. [2016]; cited from earlier work.
Data set [2] relates to healthy male subjects. The data set can be described thus: Resting state fMRI BOLD signal before ketamine infusion. In kind it is in vivo, human. The settings on record: 3-30 mg. As to the method: (§1) Subjects checked in on day − 1 of each treatment period during which vital signs, electrocardiogram (ECG), and laboratory safety tests were repeated. On day 1 of each treatment period, subjects received a 3-, 10-, or 30-mg TAK-063 dose or placebo tablets. Participants then relaxed, slept, or watched movies while remaining in the research environment. Ketamine (0.12 mg/kg intravenous bolus over 60 s followed by a continuous infusion of 0.31 mg/kg/h over approximately 150 min) was administered 4 h after TAK-063 or placebo (Fig. 1). This ketamine dose was based on a previous study that achieved steady-state concentrations of 75 ng/mL and provided a robust BOLD signal with minimal psychotomimetic symptoms (De Simoni et al. [2013]).
The scanning protocol for the current study was very comprehensive and included multiple MR approaches. This publication reports the BOLD fMRI data for the working memory task, but also resting state fMRI. The magnetic scanning portion of the neuroimaging test battery was initiated 20 min before ketamine dosing. Imaging was performed using a 3 Tesla Siemens Trio scanner. The MR scanning protocol was initiated 20 min before ketamine dosing; prior to scanning, a structural magnetization prepared rapid gradient echo (MPRAGE) scan was collected. […]

The test system of data set [3] is patients with schizophrenia. The settings on record: cited from earlier work.
The test system of data set [4] is individuals with schizophrenia. Details: method as in Macek et al. [2017]. The settings on record: 20 mg; 6-week phase 2 study; ref Macek et al. [2017]; cited from earlier work.
A further data set has as its system anesthetized rats. Details: method as in Tomimatsu et al. [2016]. The settings on record: ref Tomimatsu et al. [2016], cited from earlier work.
For data set [5], the system named is healthy male subjects. Put plainly: Ketamine-induced changes in fMRI BOLD signal during resting state. It is filed as in vivo, human. The protocol:
as §1
The scanning protocol for the current study was very comprehensive and included multiple MR approaches. This publication reports the BOLD fMRI data for the working memory task, but also resting state fMRI. The magnetic scanning portion of the neuroimaging test battery was initiated 20 min before ketamine dosing. Imaging was performed using a 3 Tesla Siemens Trio scanner. The MR scanning protocol was initiated 20 min before ketamine dosing; prior to scanning, a structural magnetization prepared rapid gradient echo (MPRAGE) scan was collected. As part of the scanning protocol, each subject received 20 min of scanning − 10 min arterial spin labeling (ASL) plus 10 min resting BOLD prior to ketamine infusion. After ketamine infusion, the resting state fMRI BOLD acquisition continued for an additional 10 min. Next, a Spatial Working Memory task-induced fMRI BOLD acquisition was performed for 15 min. Following these BOLD acquisitions, another 10 min ASL scan was acquired and a 10-min T1 relaxometry scan was conducted. The MR scanning sequence ended with a 5-min MPRAGE acquisition.
Fifty sequential gradient-echo echoplanar images (EPIs) sensitive to blood oxygenation level-dependent (BOLD) signal were collected in contiguous slices of 6-mm thickness, with 3000-ms repetition time, 40-ms echo time, 20 × 20-cm field of view, a 64 × 64 image matrix, 70° flip angle, and an in-plane resolution of 3 × 3 mm. A working memory challenge based on the expectancy A-X Continuous Performance Test (AX-CPT) paradigm was presented. The AX-CPT task was implemented in Eprime and presents 144 trials in four blocks of 36 trials. Before scanning, participants practiced the task (Barch et al. [2001]; MacDonald et al. [2003]).
We conducted a number of pre-processing steps to standardize examination of data after acquisition. These steps included (a) using the anatomical image (T1 weighted MPRAGE acquired for each subject at the beginning of the imaging session) to determine the parameters for spatial normalization to the EPI template image supplied with statistical parametric mapping (SPM) using a 12-parameter transformation; (b) registering functional images to correct for subject movement during the experimental paradigm; (c) normalizing functional images to transform images from analyzed subjects into the same standard space; (d) smoothing images (8-mm full width at half maximum [FWHM]) to minimize normalization artifacts and improve signal to noise ratio; (e) applying a high pass filter of 1200 s to the data following spatial smoothing to minimize the influence of very low frequency noise present in fMRI BOLD data without distorting the ketamine response profile. […]

Data set [6] in a line: Pharmacokinetics of TAK-063 in plasma after single oral dose. In kind it is in vivo, human.

As to `COc1cn(-c2ccc(-n3cccn3)cc2F)nc(-c2ccnn2-c2ccccc2)c1=O` [TAK-063], the PDE10A inhibition result in data set [1] is recorded as “selective inhibitor”. Further, the “MK-801-induced effects on hyperactivity” value in the data set with rats is on record as “reversed”. Further, the “effects on fMRI BOLD signal during the resting state before ketamine infusion” value in the data set on healthy male subjects [2] is listed as “region-specific effects”. Besides, the “safety and tolerability in clinical studies” value in data set [3] (ref Goldsmith et al. [2017], Tsai et al. [2016]) was “safe and well tolerated”. For the same molecule, the “effects in patients with schizophrenia” value in data set [3] (ref Macek et al. [2016a], [b]) is “increases in electroencephalogram (EEG) gamma power, improvements in mismatch negativity, and some improvements in cognition”. Besides, in data set [4], the “change from baseline in PANSS score at week 6 vs placebo (primary endpoint)” value is “did not meet its primary endpoint”. Besides, in the data set on anesthetized rats (anesthetized rats, hippocampus, cingulate and retrosplenial cortex), the “ketamine-induced increases in percent BOLD signal change in cortical regions” value is reported as “reduced”. In the data set on anesthetized rats (rat), the “percent BOLD signal change during the resting state in caudate putamen and substantia nigra” value is “increased”. Moreover, the “effect sizes at the 10-mg dose” value in the data set on healthy male subjects [5] (10 mg, ketamine-induced BOLD changes, resting state) was “generally smaller relative to the effects of other dose groups”. The “effect on ketamine-induced changes in resting state fMRI BOLD signals” value with healthy male subjects [5] (many key regions examined, 3-30 mg) was “meaningful effect attenuating ketamine-induced changes”. Also, in data set [6] (dose range 3-30 mg), the “Dose proportionality of Cmax and AUC” value is reported as “close to dose proportional increase in exposure”. In data set [6] (single oral dose, plasma, 3-30 mg), this molecule displayed a median tmax of 3 h.

Source of the values: PMC7018803, “A randomized, placebo-controlled, phase 1 study to evaluate the effects of TAK-063 on ketamine-induced changes in fMRI BOLD signal in healthy subjects” (Psychopharmacology, 2019).
